# In patent US6737383B1, “Herbicidal oxadiazolidines” (priority 1999, dated 2004):
# Key:
# lambsquarters [1] = experiment: Test E lambsquarters; format: in vivo, Chenopodium album; conditions: Postemergence
# Summary of the method: (§1)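 Each compound, carried in a non-phytotoxic solvent blend including surfactant, was applied (postemergence: over the top of young plants at 1- to 4-leaf stage). Plants stayed in the greenhouse about 21 to 28 days before visual comparison with untreated controls.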
# littleseed canarygrass = experiment: Test E littleseed canarygrass; format: in vivo, Phalaris minor; conditions: Preemergence
# sugar beet = experiment: Test E sugar beet; format: in vivo, Beta vulgaris; conditions: Preemergence
# annual bluegrass = experiment: Test E annual bluegrass; format: in vivo, Poa annua; conditions: Postemergence
# Description: (§2) Compounds evaluated in this test were formulated in a non-phytotoxic solvent mixture which included a surfactant and applied to plants that were in the 1- to 4-leaf stage (postemergence application). A mixture of sandy loam soil and greenhouse potting mix in a 60:40 ratio was used for the postemergence test.
# (§3) Plantings of these crops and weed species were adjusted to produce plants of appropriate size for the postemergence test. All plant species were grown using normal greenhouse practices. Crop and weed species include annual bluegrass (Poa annua), blackgrass (Alopecurus myosuroides), black nightshade (Solanum nigra), chickweed (Stellaria media), common poppy (Papaver rhoeas), deadnettle (Lamium amplexicaule), downy brome (Bromus tectorum), field violet (Viola arvensis), galium (Galium aparine), green foxtail (Setaria viridis), Italian ryegrass (Lolium multiflorum), jointed goatgrass (Aegilops cylindrica), kochia (Kochia scoparia), lambsquarters (Chenopodium album), littleseed canarygrass (Phalaris minor), rape (Brassica napus), redroot pigweed (Amaranthus retroflexus), Russian thistle (Salsola kali), scentless chamomile (Matricaria inodora), spring barley (Hordeum vulgare), sugar beet (Beta vulgaris), sunflower (Helianthus annuus), ivyleaf speedwell (Veronica hederaefolia), spring wheat (Triticum aestivum), winter wheat (Triticum aestivum), wild buckwheat (Polygonum convolvulus), wild mustard (Sinapis arvensis), wild oat (Avena fatua), windgrass (Apera spica-venti) and winter barley (Hordeum vulgare).
# (§4) Treated plants and untreated controls were maintained in a greenhouse for approximately 21 to 28 days, after which all treated plants were compared to untreated controls and visually evaluated. […] A dash response (-) means no test result.
# wild mustard = experiment: Test E wild mustard; format: in vivo, Sinapis arvensis; conditions: Postemergence
# Description: […] A mixture of sandy loam soil and greenhouse potting mix in a 60:40 ratio was used for the postemergence test.
# as §3, §4
# spring wheat = experiment: Test E spring wheat; format: in vivo, Triticum aestivum; conditions: Preemergence
# wild oat = experiment: Test E wild oat; format: in vivo, Avena fatua; conditions: Postemergence
# Summary of the method: as §1
# black nightshade = experiment: Test E black nightshade; format: in vivo, Solanum nigra; conditions: Preemergence
# green foxtail = experiment: Test E green foxtail; format: in vivo, Setaria viridis; conditions: Postemergence
# Summary of the method: as §1
# barnyardgrass = experiment: Test C postemergence barnyardgrass; format: in vivo, Echinochloa crus-galli; conditions: 0 to 100 scale, 0 no effect, 100 complete control
# Summary of the method: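 Scores (0 = no effect, 100 = complete control) come from visual comparison with untreated controls after about 14–21 days. Spray formulation was a non-phytotoxic solvent mixture including surfactant; plants grew in a 60:40 sandy loam–potting mix blend.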
# lambsquarters [2] = experiment: Test E lambsquarters; format: in vivo, Chenopodium album; conditions: Preemergence
# common poppy = experiment: Test E common poppy; format: in vivo, Papaver rhoeas; conditions: Postemergence
# Description: as §2, §3, §4
# wild buckwheat = experiment: Test E wild buckwheat; format: in vivo, Polygonum convolvulus; conditions: Preemergence
# wild poinsettia = experiment: Test C postemergence wild poinsettia; format: in vivo, Euphorbia heterophylla; conditions: 0 to 100 scale, 0 no effect, 100 complete control
# Description: as §2, with “grown for various periods of time before treatment” for “in the 1- to 4-leaf stage”
# Plantings of these crops and weed species were adjusted to produce plants of appropriate size for the postemergence test. All plant species were grown using normal greenhouse practices. Crop and weed species include arrowleaf sida (Sida rhombifolia), barnyardgrass (Echinochloa crus-galli), cocklebur (Xanthium strumarium), common ragweed (Ambrosia elatior), corn (Zea mays), cotton (Gossypium hirsutum), eastern black nightshade (Solanum ptycanthum), fall panicum (Panicum dichotomiflorum), field bindweed (Convolvulus arvensis), giant foxtail (Setaria faberii), hairy beggarticks (Bidens pilosa), ivyleaf morningglory (Ipomoea hederacea), johnsongrass (Sorghum halepense), ladysthumb smartweed (Polygonum persicaria), lambsquarters (Chenopodium album), large crabgrass (Digitaria sanguinalis), purple nutsedge (Cyperus rotundus), redroot pigweed (Amaranthus retroflexus), soybean (Glycine max), surinam grass (Brachiaria decumbens), velvetleaf (Abutilon theophrasti) and wild poinsettia (Euphorbia heterophylla).
# Treated plants and untreated controls were maintained in a greenhouse for approximately 14, to 21 days, after which all treated plants were compared to untreated controls and visually evaluated. Plant response ratings, summarized in Table C, were based upon a 0 to 100 scale where 0 was no effect and 100 was complete control. A dash response (−) means no test result.
# [3] = Rate 250 g/ha, 0 to 100 scale where 0 is no effect and 100 is complete control
# [4] = Rate 125 g/ha, 0 to 100 scale (0 no effect, 100 complete control)
smiles,measurement,setting,value
CC(C)N(C(=O)n1oc(=O)n(C)c1=O)c1ccc(F)cc1 [Compound 138],Plant response rating Lambsquarters,"lambsquarters [1]; Rate 125 g/ha, 0 to 100 scale",10
same,Lambsquarters plant response rating,lambsquarters [1]; [3],30
same,"Plant response rating, LS canarygrass",littleseed canarygrass; [4],70
same,LS canarygrass plant response rating (0 to 100 scale),littleseed canarygrass; Rate 250 g/ha,85
same,"Plant response rating, Sugar beet",sugar beet; [4],0
same,Sugar beet plant response rating (0 to 100 scale),sugar beet; Rate 250 g/ha,50
same,"Plant response rating, Annual bluegras","annual bluegrass; Rate 125 g/ha, 0 to 100 scale",0
same,Annual bluegras plant response rating,annual bluegrass; [3],10
same,"Plant response rating, Wild mustard","wild mustard; Rate 125 g/ha, 0 to 100 scale",0
same,Wild mustard plant response rating,wild mustard; [3],0
same,"Plant response rating, Spring Wheat",spring wheat; [4],55
same,Spring Wheat plant response rating (0 to 100 scale),spring wheat; Rate 250 g/ha,100
same,"Plant response rating, Wild oat","wild oat; Rate 125 g/ha, 0 to 100 scale",0
same,Wild oat plant response rating,wild oat; [3],0
same,"Plant response rating, Blk nightshade",black nightshade; [4],85
same,Blk nightshade plant response rating (0 to 100 scale),black nightshade; Rate 250 g/ha,95
same,"Plant response rating, Green foxtail","green foxtail; Rate 125 g/ha, 0 to 100 scale",15
same,Green foxtail plant response rating,green foxtail; [3],70
same,"Plant response rating, Barnyardgrass",barnyardgrass; Rate 140 g/ha,40
same,"Plant response rating, Barnyardgrass",barnyardgrass; Rate 280 g/ha,70
same,"Plant response rating, Barnyardgrass",barnyardgrass; Rate 560 g/ha,85
same,"Plant response rating, Barnyardgrass",barnyardgrass; Rate 1120 g/ha,85
same,Plant response rating Lambsquarters,lambsquarters [2]; [4],100
same,Lambsquarters plant response rating (0 to 100 scale),lambsquarters [2]; Rate 250 g/ha,100
same,"Plant response rating, Comnion poppy","common poppy; Rate 125 g/ha, 0 to 100 scale",20
same,Common poppy plant response rating,common poppy; [3],40
same,"Plant response rating, Wild buckwheat",wild buckwheat; [4],50
same,Wild buckwheat plant response rating (0 to 100 scale),wild buckwheat; Rate 250 g/ha,100
same,Plant response rating Wild poinsettia,wild poinsettia; Rate 140 g/ha,0
same,Plant response rating Wild poinsettia,wild poinsettia; Rate 280 g/ha,0
same,Plant response rating Wild poinsettia,wild poinsettia; Rate 560 g/ha,0
same,Plant response rating Wild poinsettia,wild poinsettia; Rate 1120 g/ha,70
